According to ChEMBL document CHEMBL1131392, “3-Pyridyloxypropanolamine agonists of the beta 3 adrenergic receptor with improved pharmacokinetic properties” (Bioorg Med Chem Lett, 1998):

Tests used:
[1] = Oral bioavailability in dog; assay type: ADME, organism-based, Canis lupus familiaris; details: in vivo
[2] = Plasma clearance upon intravenous administration of 1 mg/Kg in rats; assay type: ADME, organism-based; details: rat
[3] = Compound was evaluated for half life (t1/2) upon intravenous administration of 1 mg/Kg in rats; assay type: ADME, organism-based; details: rat, in vivo

Row | bioavailability [1] | clearance [2] | half-life [3] | Structure (SMILES)
1 | 3% | – | – | O=S(=O)(Nc1ccc(CCNC[C@H](O)COc2ccc(O)cc2)cc1)c1cnc2ccccc2c1
2 | – | > 200 mL/min/kg | 25 min | O=S(=O)(Nc1ccc(CCNC[C@H](O)COc2ccc(O)cc2)cc1)c1ccccc1
3 | < 1% | – | – | CCCCCCNC(=O)Nc1ccc(S(=O)(=O)Nc2ccc(CCNC[C@H](O)COc3ccc(O)cc3)cc2)cc1 [L-755507]
